Test results from PubChem BioAssay (NCI).
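How tested: cells in 96-well plates exposed to compound for 48 hours at five concentrations. Here, GI50 denotes the concentration required for 50% inhibition of growth. TGI is the concentration that stops growth completely.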

How the values were obtained:
Experiment in all cases: inhibition of tumour cell growth, NCI panel, 48 h
[1] = test system: 786-0 renal
[2] = test system: A549 NSCLC
[3] = test system: ACHN renal
[4] = test system: BT-549 breast
[5] = test system: CAKI-1 renal
[6] = test system: CCRF-CEM leukemia
[7] = test system: COLO 205 colon
[8] = test system: DU-145 prostate
[9] = test system: EKVX NSCLC
[10] = test system: HCC-2998 colon
[11] = test system: HCT-116 colon
[12] = test system: HCT-15 colon
[13] = test system: HL-60(TB) leukemia
[14] = test system: HOP-62 NSCLC
[15] = test system: HOP-92 NSCLC
[16] = test system: HS 578T breast
[17] = test system: HT29 colon
[18] = test system: IGROV1 ovarian
[19] = test system: K-562 leukemia
[20] = test system: KM12 colon
[21] = test system: LOX IMVI melanoma
[22] = test system: M14 melanoma
[23] = test system: MALME-3M melanoma
[24] = test system: MCF7 breast
[25] = test system: MDA-MB-231 breast
[26] = test system: MDA-MB-435
[27] = test system: MOLT-4 leukemia
[28] = test system: NCI-H226 lung
[29] = test system: NCI-H23 lung
[30] = test system: NCI-H460 lung
[31] = test system: NCI-H522 lung
[32] = test system: NCI/ADR-RES ovarian
[33] = test system: OVCAR-3 ovarian
[34] = test system: OVCAR-4 ovarian
[35] = test system: OVCAR-5 ovarian
[36] = test system: OVCAR-8 ovarian
[37] = test system: PC-3 prostate
[38] = test system: RPMI-8226 leukemia
[39] = test system: RXF 393 renal
[40] = test system: SF-268 CNS
[41] = test system: SF-295 CNS
[42] = test system: SF-539 CNS
[43] = test system: SK-MEL-2 melanoma
[44] = test system: SK-MEL-28 melanoma
[45] = test system: SK-MEL-5 melanoma
[46] = test system: SK-OV-3 ovarian
[47] = test system: SN12C renal
[48] = test system: SNB-19 CNS
[49] = test system: SNB-75 CNS
[50] = test system: SR leukemia
[51] = test system: SW-620 colon
[52] = test system: T-47D breast
[53] = test system: TK-10 renal
[54] = test system: U251 CNS
[55] = test system: UACC-257 melanoma
[56] = test system: UACC-62 melanoma
[57] = test system: UO-31 renal

Which GI50 [1] does the source give for `CC(C)=CCc1c(O)c(CC=C(C)C)c2c(c1O)C(=O)C1=C[C@@H]3C[C@H]4C(C)(C)O[C@@](C/C=C(\C)C(=O)O)(C3=O)[C@@]14O2` here?
The GI50 was 18.8 µM.

What about the TGI [1] of the same compound?
The TGI was 37.3 µM.

What about the GI50 [2] of the same compound?
The GI50 was 38.4 µM.

And the TGI [2]?
Its TGI is over 100 µM.

What about the GI50 [3] of the same compound?
The GI50 was 29.7 µM.

What about the TGI [3] of the same compound?
The TGI was over 100 µM.

And the GI50 [4]?
Its GI50 is 16.8 µM.

And the TGI [4]?
Its TGI is 33.8 µM.

And the GI50 [5]?
Its GI50 is 29.4 µM.

And the TGI [5]?
Its TGI is over 100 µM.

And the GI50 [6]?
The GI50 was 18.5 µM.

What about the TGI [6] of the same compound?
Its TGI is 76.5 µM.

What about the GI50 [7] of the same compound?
The GI50 was 19.3 µM.

And the TGI [7]?
The TGI was 45.5 µM.

What about the GI50 [8] of the same compound?
The GI50 was 25.9 µM.

And the TGI [8]?
Its TGI is 68 µM.

What about the GI50 [9] of the same compound?
Its GI50 is 27.5 µM.

What about the TGI [9] of the same compound?
The TGI was over 100 µM.

And the GI50 [10]?
The GI50 was 19.6 µM.

What about the TGI [10] of the same compound?
The TGI was 40.1 µM.

And the GI50 [11]?
Its GI50 is 18 µM.

And the TGI [11]?
The TGI was 34.2 µM.

What about the GI50 [12] of the same compound?
The GI50 was 23.9 µM.

And the TGI [12]?
The TGI was over 100 µM.

What about the GI50 [13] of the same compound?
Its GI50 is 21.1 µM.

And the TGI [13]?
Its TGI is 70.3 µM.

What about the GI50 [14] of the same compound?
The GI50 was 23.8 µM.

What about the TGI [14] of the same compound?
The TGI was 58.7 µM.

And the GI50 [15]?
The GI50 was 19 µM.

And the TGI [15]?
Its TGI is 45 µM.

And the GI50 [16]?
The GI50 was 42.6 µM.

And the TGI [16]?
Its TGI is over 100 µM.

What about the GI50 [17] of the same compound?
Its GI50 is 23.7 µM.

What about the TGI [17] of the same compound?
Its TGI is 64.3 µM.

And the GI50 [18]?
The GI50 was 26.7 µM.

And the TGI [18]?
Its TGI is 83.2 µM.

What about the GI50 [19] of the same compound?
The GI50 was 24 µM.

What about the TGI [19] of the same compound?
Its TGI is over 100 µM.

And the GI50 [20]?
Its GI50 is 21.2 µM.

What about the TGI [20] of the same compound?
The TGI was 47.1 µM.

What about the GI50 [21] of the same compound?
Its GI50 is 14.4 µM.

And the TGI [21]?
The TGI was 28.6 µM.

And the GI50 [22]?
Its GI50 is 19.9 µM.

And the TGI [22]?
The TGI was 52.3 µM.

And the GI50 [23]?
Its GI50 is 18 µM.

What about the TGI [23] of the same compound?
Its TGI is 50.9 µM.

What about the GI50 [24] of the same compound?
Its GI50 is 19 µM.

And the TGI [24]?
Its TGI is over 100 µM.

What about the GI50 [25] of the same compound?
Its GI50 is 42.1 µM.

What about the TGI [25] of the same compound?
The TGI was over 100 µM.

And the GI50 [26]?
The GI50 was 23.9 µM.

And the TGI [26]?
Its TGI is 62.9 µM.

And the GI50 [27]?
The GI50 was 25.1 µM.

What about the TGI [27] of the same compound?
The TGI was 93.4 µM.

And the GI50 [28]?
Its GI50 is 25.4 µM.

What about the TGI [28] of the same compound?
Its TGI is 58.9 µM.

And the GI50 [29]?
The GI50 was 22.5 µM.

And the TGI [29]?
Its TGI is 69.2 µM.

And the GI50 [30]?
Its GI50 is 19.8 µM.

And the TGI [30]?
The TGI was 44 µM.

What about the GI50 [31] of the same compound?
The GI50 was 15.9 µM.

What about the TGI [31] of the same compound?
Its TGI is 36 µM.

What about the GI50 [32] of the same compound?
Its GI50 is 33.3 µM.

And the TGI [32]?
Its TGI is over 100 µM.

And the GI50 [33]?
Its GI50 is 18.1 µM.

And the TGI [33]?
The TGI was 34.2 µM.

What about the GI50 [34] of the same compound?
The GI50 was 41.7 µM.

What about the TGI [34] of the same compound?
The TGI was over 100 µM.

And the GI50 [35]?
The GI50 was 32.9 µM.

What about the TGI [35] of the same compound?
Its TGI is 98.1 µM.

What about the GI50 [36] of the same compound?
The GI50 was 28.4 µM.

And the TGI [36]?
The TGI was over 100 µM.

What about the GI50 [37] of the same compound?
The GI50 was 25 µM.

And the TGI [37]?
The TGI was 64.8 µM.

What about the GI50 [38] of the same compound?
The GI50 was 12.8 µM.

What about the TGI [38] of the same compound?
The TGI was 50.8 µM.

And the GI50 [39]?
The GI50 was 21.6 µM.

What about the TGI [39] of the same compound?
The TGI was 42.2 µM.

What about the GI50 [40] of the same compound?
Its GI50 is 26.6 µM.

And the TGI [40]?
Its TGI is over 100 µM.

And the GI50 [41]?
Its GI50 is 33.9 µM.

And the TGI [41]?
The TGI was over 100 µM.

And the GI50 [42]?
Its GI50 is 17.3 µM.

And the TGI [42]?
Its TGI is 41.2 µM.

And the GI50 [43]?
The GI50 was 19.8 µM.

And the TGI [43]?
The TGI was 43 µM.

What about the GI50 [44] of the same compound?
Its GI50 is 24.8 µM.

And the TGI [44]?
The TGI was 69.1 µM.

What about the GI50 [45] of the same compound?
The GI50 was 18.8 µM.

What about the TGI [45] of the same compound?
Its TGI is 36.1 µM.

And the GI50 [46]?
Its GI50 is 59.6 µM.

And the TGI [46]?
Its TGI is over 100 µM.

What about the GI50 [47] of the same compound?
Its GI50 is 29.4 µM.

What about the TGI [47] of the same compound?
Its TGI is over 100 µM.

And the GI50 [48]?
Its GI50 is 30.2 µM.

What about the TGI [48] of the same compound?
The TGI was 94.4 µM.

What about the GI50 [49] of the same compound?
The GI50 was 31.9 µM.

What about the TGI [49] of the same compound?
The TGI was over 100 µM.

What about the GI50 [50] of the same compound?
The GI50 was 16.1 µM.

And the TGI [50]?
The TGI was over 100 µM.

And the GI50 [51]?
Its GI50 is 19.9 µM.

And the TGI [51]?
The TGI was 50.4 µM.

What about the GI50 [52] of the same compound?
Its GI50 is 23.6 µM.

What about the TGI [52] of the same compound?
Its TGI is 79.3 µM.

What about the GI50 [53] of the same compound?
Its GI50 is 25.6 µM.

What about the TGI [53] of the same compound?
Its TGI is 50.9 µM.

What about the GI50 [54] of the same compound?
Its GI50 is 17.4 µM.

What about the TGI [54] of the same compound?
Its TGI is 38.5 µM.

And the GI50 [55]?
Its GI50 is 21.6 µM.

What about the TGI [55] of the same compound?
The TGI was 55 µM.

What about the GI50 [56] of the same compound?
The GI50 was 19.9 µM.

And the TGI [56]?
Its TGI is 50.8 µM.

What about the GI50 [57] of the same compound?
Its GI50 is 14.3 µM.

What about the TGI [57] of the same compound?
Its TGI is 31.8 µM.
